Assay results published in US20240376099A1, “COMPOUNDS AND COMPOSITIONS AS INHIBITORS OF ENDOSOMAL TOLL-LIKE RECEPTORS” (Novartis AG, priority 2016, published 2024).

The compounds below were run against T1, TLR9 (Homo sapiens, UniProt Q9NR96) (assay: huPBMC TLR9 Antagonist IFNα Assay). Details: human PBMCs stimulated with ODN2216 0.3 μM, 14-16 hrs; IFNα2b AlphaLISA read-out.
T1 construct: Fresh blood was collected from normal human donors; endogenous in cells; host or cells: human PBMCs from fresh donor blood
T1 sequence (Q9NR96 26-1032): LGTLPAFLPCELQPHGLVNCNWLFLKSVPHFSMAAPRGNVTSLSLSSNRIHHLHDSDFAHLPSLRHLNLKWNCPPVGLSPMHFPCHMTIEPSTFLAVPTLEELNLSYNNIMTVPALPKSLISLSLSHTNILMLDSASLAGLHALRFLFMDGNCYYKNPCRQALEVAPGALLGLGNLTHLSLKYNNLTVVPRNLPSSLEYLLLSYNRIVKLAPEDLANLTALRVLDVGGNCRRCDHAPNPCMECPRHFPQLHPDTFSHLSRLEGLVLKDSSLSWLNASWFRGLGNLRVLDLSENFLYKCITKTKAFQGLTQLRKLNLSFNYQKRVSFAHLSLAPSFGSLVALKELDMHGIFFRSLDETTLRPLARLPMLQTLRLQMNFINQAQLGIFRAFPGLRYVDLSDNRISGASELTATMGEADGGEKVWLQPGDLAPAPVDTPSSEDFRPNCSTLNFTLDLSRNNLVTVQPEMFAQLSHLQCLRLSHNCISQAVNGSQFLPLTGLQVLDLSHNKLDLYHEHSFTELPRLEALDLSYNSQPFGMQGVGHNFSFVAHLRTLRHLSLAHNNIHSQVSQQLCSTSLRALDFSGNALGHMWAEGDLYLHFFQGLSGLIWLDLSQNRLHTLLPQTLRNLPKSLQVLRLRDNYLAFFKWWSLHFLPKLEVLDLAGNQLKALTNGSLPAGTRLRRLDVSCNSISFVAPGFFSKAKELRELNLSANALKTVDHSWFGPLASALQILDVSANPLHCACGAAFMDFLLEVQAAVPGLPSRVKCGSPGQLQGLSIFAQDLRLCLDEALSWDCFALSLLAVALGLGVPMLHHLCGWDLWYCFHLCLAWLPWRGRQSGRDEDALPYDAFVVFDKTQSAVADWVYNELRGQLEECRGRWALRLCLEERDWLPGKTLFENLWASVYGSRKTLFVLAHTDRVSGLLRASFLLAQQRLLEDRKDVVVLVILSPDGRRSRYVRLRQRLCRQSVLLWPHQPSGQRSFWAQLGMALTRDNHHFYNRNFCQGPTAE
Type: cell-based
Protocol: Compounds were generally serially diluted (1/3) in DMSO and plated on sterile 384 well tissue culture plates and stored until ready for use. Each ten-point dilution was typically plated in triplicate in parallel rows.
Fresh blood was collected from normal human donors underwritten informed consent in heparinized syringes on the morning of the assay. The blood was diluted in RPMI-1640 medium and the white blood cells were separated from red blood cells by centrifugation (800 g 15′ 0 acceleration, 0 brake) on a Ficoll cushion. Peripheral blood mononuclear cells (PBMCs) were separated from platelets by a series of low-speed centrifugations (1000RPM 10′) in PBS+5% HI—FBS and 1 mM EDTA. Purified PBMCs were re-suspended in assay medium (RPMI-1640 w Glutamax (Invitrogen) supplemented with 5% HI—FBS, 10 mM HEPES, 50 uM β-mercaptoethanol, and 100 mG/L penicillin/streptomycin cocktail). Viable PBMCs were counted on a hemacytometer and kept on ice until ready for plating.
A 4× concentration (4 ug/ml or 40 ug/ml for TLR8 or TLR7 assays, respectively) of the TLR7/8 agonist ssRNA40 (IDT) was complexed with 10% DOTAP (Roche) in assay medium for 30 min prior to addition to the PBMC suspension (5 million cells/ml). After addition, the final concentration of ssRNA40 in the TLR7/8 stimulated PBMC suspension was 1 μg/ml for TLR8 assay, and 10 μg/mL for the TLR7 assay. The final DOTAP concentration was 2.5%. Diluted PBMCs (5 million cells/ml) were treated with 4×TLR9 agonist ODN2216 (Invivogen). Final concentration of ODN2216 in TLR9 stimulated PBMC suspension was 0.3 μM.
Agonist stimulated PBMCs were plated on the compound treated 384 well plates at 150,000 cells/well. Un-stimulated PBMCs were plated as controls on each plate. Plating volume was 40 μL per well. DMSO concentration in each well was 0.25%.
A separate plate, without compounds, with titrations of ssRNA40 and ODN2216 was included in every assay to measure agonist response of each donor's PBMC prep. Assay plates were placed in a tissue culture incubator (37° C., 5% CO2) for 14-16 hrs. After this incubation, the plates were centrifuged and stored at −20° C. until they were assayed.
IL-6 TR-FRET Assay for TLR8 activity: • 1) Cisbio Human IL-6 kit, 20,000 tests (62TNFPEC), and GNF High-Base TC 384 well plates (cat #789163G) were used; • 2) the Anti-TIL-6 Cryptate conjugate and the Anti-IL-6 XL665 conjugate were diluted 1:20 in Reconstitution Buffer; • 3) a 1:1 mixture of 3 μl/well Anti-IL-6 Cryptate conjugate and 3 μl/well Anti-IL-6 XL665 conjugate was prepared; • 4) 6 μl/well HTRF dilution mastermix was added to 6 μl of transferred supernatant samples in proxiplates; • 5) The plates were incubated for 3 hrs at rt in the dark; and • 6) the levels of IL-6 production was measured using an Envision plate reader (665 nm (emmission)/590 nm (excitation)) with HTRF settings and ratiometric read-out: (XL665 emission/Eu Cryptate emission)×10,000. IFNα2b AlphaLISA Assay for TLR7 or TLR9 activity After thawing the assay plates, 6 μL of supernatant samples were transferred to a low-volume AlphaPlate 384SW (Perkin-Elmer). The concentration of IFNα in supernatants was measured using the IFNα2b AlphaLISA Assay (Perkin-Elmer: AL297F). 3 μL of IFNα acceptor beads/biotinylated antibody solution was added first, using laboratory automation. After an hour incubation, […] of streptavidin […] bead solution was added. The plates containing this mixture were incubated in the dark for an hour and read on an appropriate plate reader at reading parameters set by the manufacturer. (Envision, EnSpire: Perkin-Elmer).
Work on `Cc1cc(N2CCc3c(c(C)nn3CC34CCC(N)(CC3)CC4)C2)c2ccncc2n1` [Compound No. 3, 4-((3-methyl-5-(2-methyl-1,7-naphthyridin-4-yl)-4,5,6,7-tetrahydro-1H-pyrazolo[4,3-c]pyridin-1-yl)methyl)bicyclo[2.2.2]octan-1-amine] yielded an IC50 of 1930 nM. `Cc1cc(N2CCc3c(c(C)nn3CC34CCC(NC5COC5)(CC3)CC4)C2)c2cnn(C)c2n1` [Compound No. 6, N-(4-((5-(1,6-dimethyl-1H-pyrazolo[3,4-b]pyridin-4-yl)-3-methyl-4,5,6,7-tetrahydro-1H-pyrazolo[4,3-c]pyridin-1-yl)methyl)bicyclo[2.2.2]octan-1-yl)oxetan-3-amine] gave an IC50 of 1390 nM. In the case of `Cc1cc(N2CCc3c(c(C)nn3CC34CCC(NC(=O)[C@@H]5COCCN5)(CC3)CC4)C2)c2cnn(C)c2n1` [Compound No. 8, (S)—N-(4-((5-(1,6-dimethyl-1H-pyrazolo[3,4-b]pyridin-4-yl)-3-methyl-4,5,6,7-tetrahydro-1H-pyrazolo[4,3-c]pyridin-1-yl)methyl)bicyclo[2.2.2]octan-1-yl)morpholine-3-carboxamide], the IC50 is reported as 4280 nM. For `Cc1cc(N2CCc3c(c(C)nn3CC34CCC(NC(=O)[C@H]5COCCN5)(CC3)CC4)C2)c2cnn(C)c2n1` [Compound No. 9, (R)—N-(4-((5-(1,6-dimethyl-1H-pyrazolo[3,4-b]pyridin-4-yl)-3-methyl-4,5,6,7-tetrahydro-1H-pyrazolo[4,3-c]pyridin-1-yl)methyl)bicyclo[2.2.2]octan-1-yl)morpholine-3-carboxamide], the IC50 was 5100 nM. In the case of `Cc1nc(N2CCc3c(c(C)nn3CC34CCC(N5CC6(COC6)C5)(CC3)CC4)C2)c2c(n1)c(C)nn2C` [Compound No. 10, 6-(4-((3-methyl-5-(1,3,5-trimethyl-1H-pyrazolo[4,3-d]pyrimidin-7-yl)-4,5,6,7-tetrahydro-1H-pyrazolo[4,3-c]pyridin-1-yl)methyl)bicyclo[2.2.2]octan-1-yl)-2-oxa-6-azaspiro[3.3]heptane], the IC50 is reported as > 10000 nM. For `Cc1nc(N2CCc3c(c(C)nn3CC34CCC(N)(CC3)CC4)C2)c2c(n1)c(C)nn2C` [Compound No. 26, 4-((3-methyl-5-(1,3,5-trimethyl-1H-pyrazolo[4,3-d]pyrimidin-7-yl)-4,5,6,7-tetrahydro-1H-pyrazolo[4,3-c]pyridin-1-yl)methyl)bicyclo[2.2.2]octan-1-amine], the IC50 was > 1000 nM. Work on `Cc1cc(N2CCc3c(c(C)nn3CC34CCC(N(C)C)(CC3)CC4)C2)c2cnn(C)c2n1` [Compound No. 43, 4-((5-(1,6-dimethyl-1H-pyrazolo[3,4-b]pyridin-4-yl)-3-methyl-4,5,6,7-tetrahydro-1H-pyrazolo[4,3-c]pyridin-1-yl)methyl)-N,N-dimethylbicyclo[2.2.2]octan-1-amine] yielded an IC50 of 511 nM. With `Cc1cc(N2CCc3c(c(C)nn3CC34CCC(N5CCN(C)C(=O)C5)(CC3)CC4)C2)c2cnn(C)c2n1` [Compound No. 104, 4-(4-((5-(1,6-dimethyl-1H-pyrazolo[3,4-b]pyridin-4-yl)-3-methyl-4,5,6,7-tetrahydro-1H-pyrazolo[4,3-c]pyridin-1-yl)methyl)bicyclo[2.2.2]octan-1-yl)-1-methylpiperazin-2-one] the IC50 was > 10000 nM. `Cc1cc(N2CCc3c(c(C)nn3CC34CCC(N5CCN(C)CC5=O)(CC3)CC4)C2)c2cnn(C)c2n1` [Compound No. 108, 1-(4-((5-(1,6-dimethyl-1H-pyrazolo[3,4-b]pyridin-4-yl)-3-methyl-4,5,6,7-tetrahydro-1H-pyrazolo[4,3-c]pyridin-1-yl)methyl)bicyclo[2.2.2]octan-1-yl)-4-methylpiperazin-2-one] was tested, and the IC50 was 8640 nM. `Cc1cc(N2CCc3c(c(C)nn3CC34CCC(n5ccnc5)(CC3)CC4)C2)c2cnn(C)c2n1` [Compound No. 119, 1-((4-(1H-imidazol-1-yl)bicyclo[2.2.2]octan-1-yl)methyl)-5-(1,6-dimethyl-1H-pyrazolo[3,4-b]pyridin-4-yl)-3-methyl-4,5,6,7-tetrahydro-1H-pyrazolo[4,3-c]pyridine] was tested, and the IC50 was 608 nM. `Cc1cc(N2CCc3c(c(C)nn3CC34CCC(NC(=O)CN5CC(F)C5)(CC3)CC4)C2)c2cnn(C)c2n1` [Compound No. 133, N-(4-((5-(1,6-dimethyl-1H-pyrazolo[3,4-b]pyridin-4-yl)-3-methyl-4,5,6,7-tetrahydro-1H-pyrazolo[4,3-c]pyridin-1-yl)methyl)bicyclo[2.2.2]octan-1-yl)-2-(3-fluoroazetidin-1-yl)acetamide] gave an IC50 of 1140 nM. For `Cc1cc(N2CCc3c(c(C)nn3CC34CCC(NC(=O)CO)(CC3)CC4)C2)c2cnn(C)c2n1` [Compound No. 135, N-(4-((5-(1,6-dimethyl-1H-pyrazolo[3,4-b]pyridin-4-yl)-3-methyl-4,5,6,7-tetrahydro-1H-pyrazolo[4,3-c]pyridin-1-yl)methyl)bicyclo[2.2.2]octan-1-yl)-2-hydroxyacetamide], the IC50 was > 10000 nM. With `Cc1cc(N2CCc3c(c(C)nn3CC34CCC(NC(=O)CN5CC(O)C5)(CC3)CC4)C2)c2cnn(C)c2n1` [Compound No. 136, N-(4-((5-(1,6-dimethyl-1H-pyrazolo[3,4-b]pyridin-4-yl)-3-methyl-4,5,6,7-tetrahydro-1H-pyrazolo[4,3-c]pyridin-1-yl)methyl)bicyclo[2.2.2]octan-1-yl)-2-(3-hydroxyazetidin-1-yl)acetamide] the IC50 was 1170 nM. `[2H]C([2H])([2H])n1ncc2c(N3CCc4c(c(C)nn4CC45CCC(N)(CC4)CC5)C3)cc(C)nc21` [Compound No. 140, 4-((3-methyl-5-(6-methyl-1-(methyl-d3)-1H-pyrazolo[3,4-b]pyridin-4-yl)-4,5,6,7-tetrahydro-1H-pyrazolo[4,3-c]pyridin-1-yl)methyl)bicyclo[2.2.2]octan-1-amine] was tested, and the IC50 was 1800 nM. In the case of `Cc1cc(N2CCc3c(c(C)nn3CC34CCC(NC(=O)OC(C)(C)C)(CC3)CC4)C2)c2ccncc2n1` [Compound No. 147, tert-butyl (4-((3-methyl-5-(2-methyl-1,7-naphthyridin-4-yl)-4,5,6,7-tetrahydro-1H-pyrazolo[4,3-c]pyridin-1-yl)methyl)bicyclo[2.2.2]octan-1-yl)carbamate], the IC50 is reported as 6240 nM.
